Assay results as given in patent US20050070460A1 (priority 2003, published 2005).

Columns and labels:
[1] = test system: Influenza A/Panama/2007/99 (H3N2)
[2] = test system: Influenza A/New Calcdonia/20/99 (H1N1)
MDCK cells = conditions: Influenza A (H1N1) test
in vitro [3] = conditions: dog
[4] = test system: Influenza A/Panama/2007/99 (H3N2); assay: microbe, parasite or virus in culture; conditions: H3N2, MDCK
[5] = test system: Influenza A/New Calcdonia/20/99 (H1N1); assay: microbe, parasite or virus in culture; conditions: H1N1, MDCK
[6] = test system: humanized, non-lethal influenza virus; assay: Viral titers in rats after intranasal pre-infection treatment and influenza challenge; format: in vivo, Fisher 344 rats; conditions: intranasal administration prior to infection, 24 hours after the infection, compared also to IFN-α pretreatment
[7] = test system: Severe acute respiratory syndrome (SARS) coronavirus, strain Urbani
[8] = test system: Human coronavirus (HcoV), strain OC43
in vitro [9] = conditions: African green monkey
[10] = test system: Severe acute respiratory syndrome (SARS) coronavirus, strain Urbani; assay: microbe, parasite or virus in culture; conditions: Severe acute respiratory syndrome-related coronavirus, Vero 76, SARS, Vero 76 cells; PBMC supernatant = indirect, IRM in media = direct
[11] = test system: Human coronavirus (HcoV), strain OC43; assay: microbe, parasite or virus in culture; conditions: unidentified human coronavirus, OC43, BSC-1

Question: For NC(=O)c1ncn([C@@H]2O[C@H](CO)[C@@H](O)[C@H]2O)n1 [Ribavirin, ribavirin, reference compound], which “SI (CC50/EC50)” value [1] is on record?
Answer: Its value is greater than 19.

Question: And the “SI (CC50/EC50)” value [2]?
Answer: Its value is greater than 32.

Question: What about the CC50 (MDCK cells) of the same compound?
Answer: The CC50 was greater than 450 µM.

Question: And the CC50 (in vitro [3])?
Answer: The CC50 was greater than 450 µM.

Question: What about the EC50 [4] of the same compound?
Answer: Its EC50 is 24 µM.

Question: What about the EC50 [5] of the same compound?
Answer: Its EC50 is 14 µM.

Question: For CCOCc1nc2c(N)nc3ccccc3c2n1CC(C)(C)NS(C)(=O)=O [IRM, N-{2-[4-amino-2-(ethoxymethyl)-1H-imidazo[4,5-c]quinolin-1-yl]-1,1-dimethylethyl}methanesulfonamide], which “viral titer present in the lung” value [6] is on record?
Answer: Its value is “dramatically reduced”.

Question: What about the “viral titer present in the nasal cavity” value [6] of the same compound?
Answer: The value was “dramatically reduced”.

Question: And the “SI (CC50/EC50)” value [1]?
Answer: Its value is 0.

Question: And the “SI (CC50/EC50)” value [2]?
Answer: The value was 0.

Question: And the “SI (CC50/EC50)” value [7]?
Answer: Its value is 50.

Question: And the “antiviral activity (in words)” value [7]?
Answer: Its value is “significant direct activity”.

Question: And the “SI (CC50/EC50)” value [8]?
Answer: The value was 0.

Question: What about the CC50 (MDCK cells) of the same compound?
Answer: Its CC50 is greater than 300 µM.

Question: And the CC50 (in vitro [3])?
Answer: Its CC50 is greater than 300 µM.

Question: And the CC50 (in vitro [9])?
Answer: The CC50 was greater than 150 µM.

Question: And the EC50 [4]?
Answer: The EC50 was greater than 300 µM.

Question: And the EC50 [5]?
Answer: The EC50 was greater than 300 µM.

Question: And the EC50 [10]?
Answer: The EC50 was roughly 3 µM.

Question: And the EC50 [11]?
Answer: The EC50 was greater than 150 µM.
